The values below come from US20080275123A1, “N-HALOGENATED AMINO ACID FORMULATIONS” (ALCON RESEARCH, LTD., priority 2007, published 2008).

The structures appear in SMILES notation.

The term Log P denotes a log measure of how a compound divides between an organic and an aqueous phase. Read a low Log P as lower lipophilicity.

The test system of series [1] is C. albicans. Put plainly: Antimicrobial activity by standard microbiological analysis (viability after exposure to test agent). It counts as cell-based. Conditions: when 10 mM TBAH phase transfer agent is added. The procedure: The antimicrobial activity of certain formulations described herein was evaluated by a standard microbiological analysis. For the evaluation, bacterial and fungal isolates were grown overnight on appropriate agar media as source of fresh cells. A suspension of these fresh cells was prepared in saline at approximately 1×10^8 cfu/mL. These suspensions were added directly to the test agents (various solutions of sodium 2,2-dimethyl-N,N-dichlorotaurine and control solutions). The initial concentration of cells in the test agent solutions was approximately 1×10^6 cfu/mL. The exposure of microorganisms to the test agent was conducted at room temperature for up to 60 minutes. At selected times, an aliquot was withdrawn and diluted into phosphate buffered saline at 4° C. Viability was determined following serial dilution and filtration onto Milliflex cassettes.

A short description of series [2]: Partitioning experiment, aqueous solution / dichloromethane. It counts as physicochemical. Conditions: 4 mM compound, pH 4; for Log P: dichloromethane/aqueous; for 2,2-dimethyl-N,N-dichlorotaurine in aqueous After Partitioning % 2,2-dimethyl-N,N-dichlorotaurine: equal volume dichloromethane overnight. The procedure: Example 6 provides evidence of ion pairing taking place between a N-halogenated amino acid and a phase transfer agent, and the resulting changes in partitioning behavior. The partitioning experiment can be used to evaluate a compound's apparent lipophilicity and the potential improvement in antimicrobial activity when used on tissue.
Aqueous solutions were prepared containing 0.1% (4 mM) sodium 2,2-dimethyl-N,N-dichlorotaurine, tetrabutylammonium hydroxide (TBAH) at 0 mM, 1 mM, 4 mM, or 10 mM, 5 mM sodium acetate, sodium chloride to adjust osmolality to isotonic, and sodium hydroxide and/or hydrochloric acid to adjust pH to 4.
These aqueous solutions were assayed for 2,2-dimethyl-N,N-dichlorotaurine by reverse phase high pressure liquid chromatography. Each solution was then combined with an equal volume of dichloromethane, mixed on a rocker overnight, and the aqueous phase reassayed. The percent loss of 2,2-dimethyl-N,N-dichlorotaurine from the aqueous phase and theoretical percent of 2,2-dimethyl-N,N-dichlorotaurine partitioning to the dichloromethane were calculated and plotted versus the concentration of TBAH.
The theoretical percentage of 2,2-dimethyl-N,N-dichlorotaurine in dichloromethane phase is calculated as 100 percent minus the percent remaining in aqueous phase. FIG. 2 graphically illustrates the results of the above-described partitioning experiment. When 4 mM 2,2-dimethyl-N,N-dichlorotaurine in aqueous solution is combined with varying concentrations of TBAH, the quantity of 2,2-dimethyl-N,N-dichlorotaurine found in the aqueous solution decreases. Without added TBAH, almost all the 2,2-dimethyl-N,N-dichlorotaurine is found in the aqueous fraction. However, with 10 mM TBAH, most of the 2,2-dimethyl-N,N-dichlorotaurine has left the aqueous fraction and partitioned to the dichloromethane. This experiment is evidence of ion pair formation with TBAH phase transfer agent, which increases the apparent lipophilicity of the 2,2-dimethyl-N,N-dichlorotaurine.

Turning to `CC(C)(CS(=O)(=O)O)N(Cl)Cl` [2,2-dimethyl-N,N-dichlorotaurine], the “antimicrobial activity (FIG. 1)” value in series [1] is “dramatically increased”. For the same compound, in series [2] (TBAH 0 mM), the “2,2-dimethyl-N,N-dichlorotaurine in aqueous After Partitioning % in Aqueous” value is reported as 96.1%, the “2,2-dimethyl-N,N-dichlorotaurine in aqueous Before Partitioning % 2,2-dimethyl-N,N-dichlorotaurine” value was 0.1007%, the “Calculated 2,2-dimethyl-N,N-dichlorotaurine % in CH2Cl2 After Partitioning Theory % in Dichloromethane” value was 3.9% and the “Log P” value was −1.39. Moreover, the “2,2-dimethyl-N,N-dichlorotaurine in aqueous After Partitioning % 2,2-dimethyl-N,N-dichlorotaurine” value in series [2] (TBAH 0 mM) was 0.09675%. Besides, in series [2] (TBAH 1 mM), the “2,2-dimethyl-N,N-dichlorotaurine in aqueous After Partitioning % in Aqueous” value is reported as 76.1%, the “2,2-dimethyl-N,N-dichlorotaurine in aqueous Before Partitioning % 2,2-dimethyl-N,N-dichlorotaurine” value was 0.1008%, the “Calculated 2,2-dimethyl-N,N-dichlorotaurine % in CH2Cl2 After Partitioning Theory % in Dichloromethane” value is reported as 23.9% and the “Log P” value is −0.50. The “2,2-dimethyl-N,N-dichlorotaurine in aqueous After Partitioning % 2,2-dimethyl-N,N-dichlorotaurine” value in series [2] (TBAH 1 mM) was 0.07672%. Also, in series [2] (TBAH 4 mM), the “2,2-dimethyl-N,N-dichlorotaurine in aqueous After Partitioning % in Aqueous” value is on record as 35.4%, the “2,2-dimethyl-N,N-dichlorotaurine in aqueous Before Partitioning % 2,2-dimethyl-N,N-dichlorotaurine” value was determined as 0.1008%, the “Calculated 2,2-dimethyl-N,N-dichlorotaurine % in CH2Cl2 After Partitioning Theory % in Dichloromethane” value is on record as 64.6% and the “Log P” value came out at 0.26. Further, the “2,2-dimethyl-N,N-dichlorotaurine in aqueous After Partitioning % 2,2-dimethyl-N,N-dichlorotaurine” value in series [2] (TBAH 4 mM) was determined as 0.03573%. In addition, in series [2] (TBAH 10 mM), the “2,2-dimethyl-N,N-dichlorotaurine in aqueous After Partitioning % in Aqueous” value was 11.9%, the “2,2-dimethyl-N,N-dichlorotaurine in aqueous Before Partitioning % 2,2-dimethyl-N,N-dichlorotaurine” value is listed as 0.1009%, the “Calculated 2,2-dimethyl-N,N-dichlorotaurine % in CH2Cl2 After Partitioning Theory % in Dichloromethane” value is reported as 88.1% and the “Log P” value came out at 0.87. The “2,2-dimethyl-N,N-dichlorotaurine in aqueous After Partitioning % 2,2-dimethyl-N,N-dichlorotaurine” value in series [2] (TBAH 10 mM) is on record as 0.01198%.
